Results reported in patent US12234486B2, “Modular, microfluidic, mechanically active bioreactor for 3D, multi-tissue, tissue culture” (University of Pittsburgh—Of the Commonwealth System of …, priority 2013, dated 2025).

Tested on: chondrocytes in the cartilage chamber
Assay: RT-PCR marker expression in cartilage (top) chamber of bioreactor after hormone supply
Type: cell-based
Conditions: progesterone progressively added to estradiol, week 3 and 4 (10 nM, 50 nM), higher when hormones directly applied to cartilage
Experimental: FIGS. 17-20 are graphs that show differential expression of markers (as determined by RT-PCR) for a control medium that contained no estrogen or progesterone (first bar), and then different concentrations of hormones supplied to one or the other of the bioreactor chambers during week 1 (w1: 0.1 nM estradiol), week 2 (w2: 1 nM estradiol), week 3 (w3: 1 nM estradiol and 10 nM progesterone), and week 4 (w4: 0.1 nM estradiol and 50 nM progesterone). […] FIGS. 17-18 show differential expression of markers (as determined by RT-PCR) for a control medium that contained no estrogen or progesterone (first bar), and then different concentrations of hormones supplied to the chambers during week 1 (w1: 0.1 nM estradiol), week 2 (w2: 1 nM estradiol), week 3 (w3: 1 nM estradiol and 10 nM progesterone), and week 4 (w4: 0.1 nM estradiol and 50 nM progesterone).

Structure (SMILES): CC(=O)[C@H]1CC[C@H]2[C@@H]3CCC4=CC(=O)CC[C@]4(C)[C@H]3CC[C@]12C [progesterone]
- cartilage anabolic markers (Sox9, Aggrecan): downregulation is still present
